Assay results reported in patent US12668763B2, “Co-culturing device, motor neuron culturing device, multi-well plate, fabrication method of in vitro evaluation model of neuromuscular disease, and screening method of therapeutic agent against neuromuscular disease” (priority 2019, dated 2026).

System: motor neuron / skeletal muscle tissue (neuromuscular junction) of the evaluation model
Experiment: Contraction of skeletal muscle tissue caused by stimulation of motor neurons in the evaluation model (device a), moving-image analysis
Format: cell-based, human

| Structure (SMILES) | contraction of a skeletal muscle tissue after addition of the drug |
| --- | --- |
| NC1=N[C@H](O)[C@H]2[C@H]3O[C@]4(O)O[C@@H]([C@@H](O)[C@@]2(N1)[C@@H]4O)[C@]3(O)CO [tetrodotoxin] | stops contraction of a skeletal muscle tissue |
| N[C@@H](CCC(=O)O)C(=O)O [glutamic acid, Glutamic acid] | causes contraction of a skeletal muscle tissue |
